How the values were obtained:
Details in all cases: Compound concentration 100.0 nM
[1] = molecular target: Ephrin type-B receptor 3 (Homo sapiens) (UniProt P54753)
[2] = molecular target: Serine/threonine-protein kinase D3 (Homo sapiens) (UniProt O94806)
[3] = molecular target: Cyclin-dependent kinase 7 (Homo sapiens) (UniProt P50613)
[4] = molecular target: Cyclin-dependent kinase 2 homolog (Plasmodium falciparum (isolate 3D7)) (UniProt P61075)
[5] = molecular target: Cyclin-dependent kinase-like 3 (Homo sapiens) (UniProt Q8IVW4)
[6] = molecular target: Mitogen-activated protein kinase kinase kinase 15 (Homo sapiens) (UniProt Q6ZN16)
[7] = molecular target: Serine/threonine-protein kinase Nek1 (Homo sapiens) (UniProt Q96PY6)
[8] = molecular target: Wee1-like protein kinase (Homo sapiens) (UniProt P30291)
[9] = molecular target: cAMP-dependent protein kinase catalytic subunit alpha (Homo sapiens) (UniProt P17612)
[10] = molecular target: Serine/threonine-protein kinase 36 (Homo sapiens) (UniProt Q9NRP7)
[11] = molecular target: cAMP-dependent protein kinase catalytic subunit PRKX (Homo sapiens) (UniProt P51817)
Chain of cAMP-dependent protein kinase catalytic subunit PRKX (Homo sapiens) (P51817 whole entry): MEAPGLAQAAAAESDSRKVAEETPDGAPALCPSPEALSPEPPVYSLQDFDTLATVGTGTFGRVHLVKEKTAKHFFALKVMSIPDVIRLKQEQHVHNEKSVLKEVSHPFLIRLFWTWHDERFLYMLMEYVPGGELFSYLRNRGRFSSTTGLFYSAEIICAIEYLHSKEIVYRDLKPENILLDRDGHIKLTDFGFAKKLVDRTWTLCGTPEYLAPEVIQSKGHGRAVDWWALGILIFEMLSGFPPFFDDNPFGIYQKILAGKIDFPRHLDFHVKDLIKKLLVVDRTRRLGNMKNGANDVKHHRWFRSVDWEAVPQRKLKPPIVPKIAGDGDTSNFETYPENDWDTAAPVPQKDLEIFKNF

[12] = molecular target: Rho-associated protein kinase 2 (Homo sapiens) (UniProt O75116)
[13] = molecular target: Cytoplasmic tyrosine-protein kinase BMX (Homo sapiens) (UniProt P51813)
[14] = molecular target: Serine/threonine-protein kinase/endoribonuclease IRE1 (Homo sapiens) (UniProt O75460)
[15] = molecular target: SRSF protein kinase 3 (Homo sapiens) (UniProt Q9UPE1)
[16] = test system: Epidermal growth factor receptor (Homo sapiens), P00533 [UNDEFINED MUTATION]
[17] = molecular target: Dual specificity mitogen-activated protein kinase kinase 6 (Homo sapiens) (UniProt P52564)
[18] = molecular target: Serine/threonine-protein kinase MARK1 (Homo sapiens) (UniProt Q9P0L2)
[19] = molecular target: SRSF protein kinase 1 (Homo sapiens) (UniProt Q96SB4)
[20] = molecular target: Serine/threonine-protein kinase PLK2 (Homo sapiens) (UniProt Q9NYY3)
Chain of Serine/threonine-protein kinase PLK2 (Homo sapiens) (Q9NYY3 whole entry, looked up): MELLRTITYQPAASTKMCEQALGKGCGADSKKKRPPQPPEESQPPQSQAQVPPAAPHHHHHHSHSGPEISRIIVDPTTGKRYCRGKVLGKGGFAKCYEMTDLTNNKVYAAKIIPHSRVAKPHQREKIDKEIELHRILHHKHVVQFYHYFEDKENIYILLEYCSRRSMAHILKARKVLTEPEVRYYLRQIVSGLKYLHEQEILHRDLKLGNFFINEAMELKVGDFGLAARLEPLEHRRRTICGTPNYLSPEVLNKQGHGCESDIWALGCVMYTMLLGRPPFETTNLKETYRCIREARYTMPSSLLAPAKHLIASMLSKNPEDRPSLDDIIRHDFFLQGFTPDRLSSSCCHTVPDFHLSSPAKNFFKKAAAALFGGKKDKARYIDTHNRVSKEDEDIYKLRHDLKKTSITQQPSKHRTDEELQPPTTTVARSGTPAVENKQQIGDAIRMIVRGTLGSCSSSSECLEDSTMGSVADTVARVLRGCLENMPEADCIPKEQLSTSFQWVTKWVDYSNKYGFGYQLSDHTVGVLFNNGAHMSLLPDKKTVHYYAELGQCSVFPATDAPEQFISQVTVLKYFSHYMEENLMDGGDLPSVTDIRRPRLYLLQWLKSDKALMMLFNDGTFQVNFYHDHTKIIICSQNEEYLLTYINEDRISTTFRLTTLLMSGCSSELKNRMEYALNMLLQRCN

[21] = molecular target: Death-associated protein kinase 1 (Homo sapiens) (UniProt P53355)
[22] = molecular target: LIM domain kinase 1 (Homo sapiens) (UniProt P53667)
[23] = molecular target: Peripheral plasma membrane protein CASK (Homo sapiens) (UniProt O14936)
[24] = molecular target: Serine/threonine-protein kinase MRCK beta (Homo sapiens) (UniProt Q9Y5S2)
[25] = molecular target: 5'-AMP-activated protein kinase catalytic subunit alpha-2 (Homo sapiens) (UniProt P54646)
[26] = molecular target: Tyrosine-protein kinase Tec (Homo sapiens) (UniProt P42680)
[27] = molecular target: Mitogen-activated protein kinase 4 (Homo sapiens) (UniProt P31152)
[28] = test system: Phosphatidylinositol 4,5-bisphosphate 3-kinase catalytic subunit alpha isoform (Homo sapiens), P42336 [E545A]
[29] = molecular target: Mitogen-activated protein kinase 6 (Homo sapiens) (UniProt Q16659)
[30] = test system: Serine/threonine-protein kinase B-raf (Homo sapiens), P15056 [V600E]
[31] = molecular target: NUAK family SNF1-like kinase 1 (Homo sapiens) (UniProt O60285)
[32] = molecular target: Bone morphogenetic protein receptor type-1A (Homo sapiens) (UniProt P36894)
Chain of Bone morphogenetic protein receptor type-1A (Homo sapiens) (P36894 whole entry): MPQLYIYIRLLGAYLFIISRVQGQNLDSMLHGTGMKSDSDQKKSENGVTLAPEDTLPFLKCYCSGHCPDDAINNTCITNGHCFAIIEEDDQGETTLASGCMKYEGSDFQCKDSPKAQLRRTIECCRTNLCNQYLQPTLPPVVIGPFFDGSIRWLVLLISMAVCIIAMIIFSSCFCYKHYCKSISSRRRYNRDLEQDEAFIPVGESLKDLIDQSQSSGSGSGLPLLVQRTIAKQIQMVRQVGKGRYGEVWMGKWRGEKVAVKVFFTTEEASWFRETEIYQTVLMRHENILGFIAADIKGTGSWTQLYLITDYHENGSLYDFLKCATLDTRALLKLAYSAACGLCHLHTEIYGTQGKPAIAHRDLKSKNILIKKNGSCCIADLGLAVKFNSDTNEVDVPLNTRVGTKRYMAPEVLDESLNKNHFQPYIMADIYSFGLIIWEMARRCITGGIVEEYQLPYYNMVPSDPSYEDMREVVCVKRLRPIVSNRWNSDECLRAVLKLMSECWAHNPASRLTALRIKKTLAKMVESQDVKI

[33] = molecular target: Vascular endothelial growth factor receptor 1 (Homo sapiens) (UniProt P17948)
Chain of Vascular endothelial growth factor receptor 1 (Homo sapiens) (P17948 whole entry): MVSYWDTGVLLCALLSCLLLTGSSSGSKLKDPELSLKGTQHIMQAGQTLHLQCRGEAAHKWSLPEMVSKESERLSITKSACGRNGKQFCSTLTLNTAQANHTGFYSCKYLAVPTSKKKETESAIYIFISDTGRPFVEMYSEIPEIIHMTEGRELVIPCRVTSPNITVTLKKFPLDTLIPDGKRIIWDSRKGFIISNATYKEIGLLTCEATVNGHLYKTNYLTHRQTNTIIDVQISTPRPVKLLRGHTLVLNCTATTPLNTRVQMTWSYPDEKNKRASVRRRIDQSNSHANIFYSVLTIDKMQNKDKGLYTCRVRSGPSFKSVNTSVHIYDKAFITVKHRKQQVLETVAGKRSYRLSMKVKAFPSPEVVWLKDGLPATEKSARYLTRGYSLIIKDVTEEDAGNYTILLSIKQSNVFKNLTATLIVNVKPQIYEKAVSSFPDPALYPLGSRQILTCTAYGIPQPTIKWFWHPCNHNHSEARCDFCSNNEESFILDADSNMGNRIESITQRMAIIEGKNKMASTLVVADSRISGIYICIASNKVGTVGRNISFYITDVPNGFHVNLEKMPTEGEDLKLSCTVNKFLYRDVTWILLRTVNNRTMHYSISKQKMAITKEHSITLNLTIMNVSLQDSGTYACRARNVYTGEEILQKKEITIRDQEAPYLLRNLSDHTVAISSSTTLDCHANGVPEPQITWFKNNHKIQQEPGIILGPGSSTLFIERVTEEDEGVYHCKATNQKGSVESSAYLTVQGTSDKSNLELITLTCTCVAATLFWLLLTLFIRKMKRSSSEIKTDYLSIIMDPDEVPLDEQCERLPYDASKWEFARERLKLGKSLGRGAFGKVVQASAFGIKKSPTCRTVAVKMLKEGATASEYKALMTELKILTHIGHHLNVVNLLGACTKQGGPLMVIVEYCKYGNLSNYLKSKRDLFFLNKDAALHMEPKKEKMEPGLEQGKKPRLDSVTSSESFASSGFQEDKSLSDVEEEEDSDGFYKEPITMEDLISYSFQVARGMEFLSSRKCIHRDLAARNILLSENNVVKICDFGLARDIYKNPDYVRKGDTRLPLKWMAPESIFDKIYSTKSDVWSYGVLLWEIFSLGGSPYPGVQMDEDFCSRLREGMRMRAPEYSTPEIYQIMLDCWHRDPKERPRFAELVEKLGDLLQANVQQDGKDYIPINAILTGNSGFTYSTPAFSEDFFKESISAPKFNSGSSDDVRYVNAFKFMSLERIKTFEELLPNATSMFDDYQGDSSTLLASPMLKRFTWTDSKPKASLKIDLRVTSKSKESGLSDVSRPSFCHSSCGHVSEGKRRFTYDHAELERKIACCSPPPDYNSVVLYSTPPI

[34] = molecular target: cAMP-dependent protein kinase catalytic subunit beta (Homo sapiens) (UniProt P22694)
[35] = molecular target: Casein kinase I isoform alpha (Homo sapiens) (UniProt P48729)
[36] = molecular target: Serine/threonine-protein kinase Nek6 (Homo sapiens) (UniProt Q9HC98)
[37] = molecular target: Mitogen-activated protein kinase kinase kinase kinase 2 (Homo sapiens) (UniProt Q12851)
[38] = molecular target: Tyrosine-protein kinase JAK3 (Homo sapiens) (UniProt P52333)
[39] = molecular target: Serine/threonine-protein kinase PAK 2 (Homo sapiens) (UniProt Q13177)
[40] = molecular target: Platelet-derived growth factor receptor alpha (Homo sapiens) (UniProt P16234)
[41] = molecular target: Homeodomain-interacting protein kinase 4 (Homo sapiens) (UniProt Q8NE63)
[42] = molecular target: Protein-tyrosine kinase 6 (Homo sapiens) (UniProt Q13882)
Chain of Protein-tyrosine kinase 6 (Homo sapiens) (Q13882 whole entry, looked up): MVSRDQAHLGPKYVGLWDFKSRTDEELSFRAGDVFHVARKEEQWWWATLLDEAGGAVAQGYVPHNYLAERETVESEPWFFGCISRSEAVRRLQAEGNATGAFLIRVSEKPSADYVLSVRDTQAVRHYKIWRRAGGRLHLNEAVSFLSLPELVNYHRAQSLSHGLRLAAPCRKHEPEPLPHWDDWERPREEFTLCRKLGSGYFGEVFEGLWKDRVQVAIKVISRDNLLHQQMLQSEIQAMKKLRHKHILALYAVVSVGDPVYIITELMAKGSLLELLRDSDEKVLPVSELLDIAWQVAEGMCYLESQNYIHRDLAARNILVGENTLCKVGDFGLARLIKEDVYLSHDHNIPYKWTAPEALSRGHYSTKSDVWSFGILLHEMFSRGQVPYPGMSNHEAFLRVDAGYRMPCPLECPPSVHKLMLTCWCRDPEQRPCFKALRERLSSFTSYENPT

[43] = molecular target: Mitogen-activated protein kinase kinase kinase 3 (Homo sapiens) (UniProt Q99759)
[44] = molecular target: Glycogen synthase kinase-3 alpha (Homo sapiens) (UniProt P49840)
Chain of Glycogen synthase kinase-3 alpha (Homo sapiens) (P49840 2-483 limits assumed): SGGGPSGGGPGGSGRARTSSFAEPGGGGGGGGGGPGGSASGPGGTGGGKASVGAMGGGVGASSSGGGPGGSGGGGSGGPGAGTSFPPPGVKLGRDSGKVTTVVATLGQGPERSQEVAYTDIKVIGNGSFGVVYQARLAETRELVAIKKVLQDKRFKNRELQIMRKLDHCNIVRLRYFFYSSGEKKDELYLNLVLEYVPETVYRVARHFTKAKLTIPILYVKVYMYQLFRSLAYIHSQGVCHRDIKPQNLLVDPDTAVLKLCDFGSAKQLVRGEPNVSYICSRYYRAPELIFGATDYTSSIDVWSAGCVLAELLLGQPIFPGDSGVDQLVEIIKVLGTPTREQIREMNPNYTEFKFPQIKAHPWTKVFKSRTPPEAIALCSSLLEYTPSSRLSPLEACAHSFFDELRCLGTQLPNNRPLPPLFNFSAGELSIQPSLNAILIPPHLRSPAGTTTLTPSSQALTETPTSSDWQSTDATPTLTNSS

[45] = molecular target: NT-3 growth factor receptor (Homo sapiens) (UniProt Q16288)
Chain of NT-3 growth factor receptor (Homo sapiens) (Q16288 32-839 limits assumed): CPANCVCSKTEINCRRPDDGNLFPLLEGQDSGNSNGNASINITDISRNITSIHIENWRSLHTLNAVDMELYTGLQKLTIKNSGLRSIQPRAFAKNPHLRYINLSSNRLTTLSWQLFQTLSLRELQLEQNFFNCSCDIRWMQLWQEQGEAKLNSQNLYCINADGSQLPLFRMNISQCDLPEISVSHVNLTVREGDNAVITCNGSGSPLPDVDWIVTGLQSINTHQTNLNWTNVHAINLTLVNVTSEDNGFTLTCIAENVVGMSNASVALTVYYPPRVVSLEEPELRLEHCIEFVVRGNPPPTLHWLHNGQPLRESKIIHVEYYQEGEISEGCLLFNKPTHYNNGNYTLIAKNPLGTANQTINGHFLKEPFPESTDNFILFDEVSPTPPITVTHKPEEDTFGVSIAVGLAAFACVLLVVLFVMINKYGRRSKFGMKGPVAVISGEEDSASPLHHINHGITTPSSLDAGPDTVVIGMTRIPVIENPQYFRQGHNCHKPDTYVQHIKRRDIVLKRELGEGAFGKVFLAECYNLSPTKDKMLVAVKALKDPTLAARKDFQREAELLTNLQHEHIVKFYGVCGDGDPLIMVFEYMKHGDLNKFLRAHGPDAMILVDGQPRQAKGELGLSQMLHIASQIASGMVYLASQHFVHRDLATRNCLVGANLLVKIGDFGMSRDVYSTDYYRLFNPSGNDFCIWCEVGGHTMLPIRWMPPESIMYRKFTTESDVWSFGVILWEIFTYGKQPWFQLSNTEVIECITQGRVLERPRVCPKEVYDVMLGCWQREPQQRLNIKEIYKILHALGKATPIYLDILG

Measured: residual activity

Chain of Cyclin-dependent kinase 2 homolog (Plasmodium falciparum (isolate 3D7)) (P61075 whole entry): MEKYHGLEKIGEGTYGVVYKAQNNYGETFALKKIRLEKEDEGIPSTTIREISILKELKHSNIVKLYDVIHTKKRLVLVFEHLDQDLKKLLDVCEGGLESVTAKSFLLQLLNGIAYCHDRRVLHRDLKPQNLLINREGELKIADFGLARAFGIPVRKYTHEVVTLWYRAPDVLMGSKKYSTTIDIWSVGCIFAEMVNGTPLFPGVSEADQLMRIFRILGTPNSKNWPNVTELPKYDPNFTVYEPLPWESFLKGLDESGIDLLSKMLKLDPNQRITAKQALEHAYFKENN

CS(=O)(=O)N1CCCC(NC(=O)[C@H](CCC2CCCCC2)NC(=O)c2ccc(CNC(=O)c3cnc4ccccn34)cc2)C1 (stereo not given in full) [SR-302]
inactive: [1] 87% | [2] 90% | [3] 100% | [4] 100% | [5] 100% | [6] 100% | [7] 68% | [8] 100% | [9] 100% | [10] 100% | [11] 65% | [12] 100% | [13] 100% | [14] 100% | [15] 100% | [16] 100% | [17] 72% | [18] 100% | [19] 74% | [20] 100% | [21] 88% | [22] 75% | [23] 100% | [24] 100% | [25] 79% | [26] 94% | [27] 100% | [28] 99% | [29] 96% | [30] 51% | [31] 88% | [32] 94% | [33] 100% | [34] 100% | [35] 100% | [36] 100% | [37] 92% | [38] 69% | [39] 93% | [40] 99% | [41] 88% | [42] 81% | [43] 100% | [44] 100% | [45] 88%

CS(=O)(=O)N1CCCC(NC(=O)[C@H](CCC2CCCCC2)NC(=O)c2ccc(CNc3ncnc4c3nnn4-c3ccccc3)cc2)C1 (stereo not given in full) [SR-301]
inactive: [1] 91% | [2] 100% | [3] 100% | [4] 100% | [5] 96% | [6] 74% | [7] 51% | [8] 72% | [9] 100% | [10] 97% | [11] 100% | [12] 100% | [13] 79% | [14] 100% | [15] 100% | [16] 94% | [17] 67% | [18] 74% | [19] 78% | [20] 99% | [21] 92% | [22] 100% | [23] 100% | [24] 90% | [25] 100% | [26] 100% | [27] 96% | [28] 100% | [29] 94% | [30] 100% | [31] 100% | [32] 90% | [33] 86% | [34] 92% | [35] 99% | [36] 86% | [37] 100% | [38] 100% | [39] 100% | [40] 91% | [41] 100% | [42] 76% | [43] 100% | [44] 100% | [45] 86%

— ChEMBL document CHEMBL4507324 (2021)
